Patent US6737383B1, “Herbicidal oxadiazolidines” (priority 1999, dated 2004)

Tests used:
morningglory = experiment: Test B pre/postemergence morningglory; format: in vivo, Ipomoea hederacea
Outline: (§1)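 Herbicidal effect was estimated by eye on a ten-point control scale after plants spent twelve to sixteen days in a greenhouse following soil or foliar treatment. Foliar sprays targeted plants at one to four leaves; all doses were formulated in a non-phytotoxic solvent with surfactant.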

smallflower flatsedge = experiment: Test B flood test smallflower flatsedge; format: in vivo, Cyperus difformis
Outline: (§2)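 Plants were grown to the 2-leaf stage before treatment with test chemical, then held in a greenhouse for twelve to sixteen days. Injury was visually rated against untreated controls on a 0–10 scale, where 0 is no effect and 10 is complete control.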

wheat = experiment: Test B pre/postemergence wheat; format: in vivo, Triticum aestivum
Outline: as §1

purple nutsedge = experiment: Test B pre/postemergence purple nutsedge; format: in vivo, Cyperus rotundus
Outline: as §1

corn = experiment: Test B pre/postemergence corn; format: in vivo, Zea mays
Outline: as §1

surinam grass = experiment: Test B pre/postemergence surinam grass; format: in vivo, Brachiaria decumbens
Outline: as §1

blackgrass = experiment: Test B pre/postemergence blackgrass; format: in vivo, Alopecurus myosuroides
Outline: as §1

crabgrass = experiment: Test B pre/postemergence crabgrass; format: in vivo, Digitaria sanguinalis
Outline: as §1

sugar beet = experiment: Test B pre/postemergence sugar beet; format: in vivo, Beta vulgaris
Outline: as §1

wild oat = experiment: Test B pre/postemergence wild oat; format: in vivo, Avena fatua
Outline: as §1

rape = experiment: Test B pre/postemergence rape; format: in vivo, Brassica napus
Outline: as §1

cocklebur = experiment: Test B pre/postemergence cocklebur; format: in vivo, Xanthium strumarium
Outline: as §1

duck salad = experiment: Test B flood test duck salad; format: in vivo, Heteranthera limosa
Outline: as §2

velvetleaf = experiment: Test B pre/postemergence velvetleaf; format: in vivo, Abutilon theophrasti
Outline: as §1

giant foxtail = experiment: Test B pre/postemergence giant foxtail; format: in vivo, Setaria faberii
Outline: as §1

soybean = experiment: Test B pre/postemergence soybean; format: in vivo, Glycine max
Outline: as §1

[1] = Postemergence, Rate 125 g/ha, scale of 0 to 10 where 0 is no effect and 10 is complete control
[2] = Postemergence, Rate 250 g/ha, scale of 0 to 10, 0 is no effect, 10 is complete control
[3] = Postemergence, Rate 500 g/ha, scale of 0 to 10 where 0 is no effect and 10 is complete control
[4] = Postemergence, Rate 1000 g/ha, scale 0 to 10 (0 no effect, 10 complete control)
[5] = Preemergence, Rate 125 g/ha, scale of 0 to 10 where 0 is no effect and 10 is complete control
[6] = Preemergence, Rate 500 g/ha, scale of 0 to 10 where 0 is no effect and 10 is complete control
[7] = Rate 1000 g/ha, Preemergence, scale 0 to 10 (0 no effect, 10 complete control)
[8] = Pre-emergence, Rate 1000 g/ha, scale 0 to 10 (0 no effect, 10 complete control)
[9] = Rate 125 g/ha, under heading Pre-emergence, flood test species, visual evaluation after twelve to sixteen days
[10] = Rate 250 g/ha, Pre-emergence (flood test species), scale 0 to 10, 0 is no effect, 10 is complete control
[11] = Rate 500 g/ha, Pre-emergence section of Table B, 0 to 10 scale (0 no effect, 10 complete control)

C=CCn1c(=O)on(C(=O)N(c2c(C)cccc2C)C(C)COC)c1=O (stereo not shown) [Compound 600]
Plant response rating, Morningglory (morningglory; [1]): 0
Morningglory plant response rating (morningglory; [2]): 0
Plant response rating, Morningglory (morningglory; [3]): 0
Morningglory plant response rating (morningglory; [4]): 0
Morningglory plant response rating (morningglory; [5]): 0
Plant response rating, Morningglory (morningglory; [6]): 0
Plant response rating, Morningglory (morningglory; [7]): 0
S. Flatsedge plant response rating (smallflower flatsedge; [8]): 0
S. Flatsedge plant response rating (0 to 10 scale, 0 is no effect, 10 is complete control) (smallflower flatsedge; [9]): 0
S. Flatsedge plant response rating (smallflower flatsedge; [10]): 0
S. Flatsedge plant response rating (smallflower flatsedge; [11]): 0
Plant response rating, Wheat (wheat; [1]): 0
Wheat plant response rating (wheat; [2]): 0
Plant response rating, Wheat (wheat; [3]): 0
Wheat plant response rating (wheat; [4]): 0
Wheat plant response rating (wheat; [5]): 0
Plant response rating, Wheat (wheat; [6]): 0
Plant response rating, Wheat (wheat; [7]): 0
Plant response rating, Nutsedge (purple nutsedge; [1]): 0
Nutsedge plant response rating (purple nutsedge; [2]): 0
Plant response rating, Nutsedge (purple nutsedge; [3]): 0
Nutsedge plant response rating (purple nutsedge; [4]): 0
Nutsedge plant response rating (purple nutsedge; [5]): 0
Plant response rating, Nutsedge (purple nutsedge; [6]): 0
Plant response rating, Nutsedge (purple nutsedge; [7]): 0
Plant response rating, Corn (corn; [1]): 0
Corn plant response rating (corn; [2]): 0
Plant response rating, Corn (corn; [3]): 0
Corn plant response rating (corn; [4]): 0
Corn plant response rating (corn; [5]): 0
Corn plant response rating (0 to 10 scale) (corn; Preemergence, Rate 250 g/ha): 0
Plant response rating, Corn (corn; [6]): 0
Plant response rating, Corn (corn; [7]): 0
Plant response rating, B. signalgrass (surinam grass; [1]): 0
B. signalgrass plant response rating (surinam grass; [2]): 0
Plant response rating, B. signalgrass (surinam grass; [3]): 0
B. signalgrass plant response rating (surinam grass; [4]): 0
B. signalgrass plant response rating (surinam grass; [5]): 0
B. signalgrass plant response rating (0 to 10 scale, 0 is no effect, 10 is complete control) (surinam grass; Preemergence, Rate 250 g/ha): 0
B. signalgrass plant response rating (surinam grass; [6]): 0
Plant response rating, B. signalgrass (surinam grass; [7]): 0
Plant response rating, Blackgrass (blackgrass; [1]): 0
Blackgrass plant response rating (blackgrass; [2]): 0
Plant response rating, Blackgrass (blackgrass; [3]): 0
Blackgrass plant response rating (blackgrass; [4]): 0
Blackgrass plant response rating (blackgrass; [5]): 0
Blackgrass plant response rating (0 to 10 scale) (blackgrass; Preemergence, Rate 250 g/ha): 0
Blackgrass plant response rating (blackgrass; [6]): 0
Plant response rating, Blackgrass (blackgrass; [7]): 0
Plant response rating, Crabgrass (crabgrass; [1]): 1
Plant response rating, Crabgrass (crabgrass; [3]): 3
Crabgrass plant response rating (crabgrass; [4]): 3
Crabgrass plant response rating (crabgrass; [5]): 0
Plant response rating, Crabgrass (crabgrass; [6]): 0
Plant response rating, Crabgrass (crabgrass; [7]): 0
Plant response rating, Sugarbeets (sugar beet; [1]): 0
Sugarbeets plant response rating (sugar beet; [2]): 0
Plant response rating, Sugarbeets (sugar beet; [3]): 0
Sugarbeets plant response rating (sugar beet; [4]): 0
Sugarbeets plant response rating (sugar beet; [5]): 0
Plant response rating, Sugarbeets (sugar beet; [6]): 0
Plant response rating, Sugarbeets (sugar beet; [7]): 0
Plant response rating, Wild oats (wild oat; [1]): 0
Wild oats plant response rating (wild oat; [2]): 0
Plant response rating, Wild oats (wild oat; [3]): 0
Wild oats plant response rating (wild oat; [4]): 0
Wild oats plant response rating (wild oat; [5]): 0
Plant response rating, Wild oats (wild oat; [6]): 0
Plant response rating, Wild oats (wild oat; [7]): 0
Plant response rating, Rape (rape; [1]): 0
Rape plant response rating (rape; [2]): 0
Plant response rating, Rape (rape; [3]): 0
Rape plant response rating (rape; [4]): 0
Rape plant response rating (rape; [5]): 0
Plant response rating, Rape (rape; [6]): 0
Plant response rating, Rape (rape; [7]): 0
Plant response rating, Cocklebur (cocklebur; [1]): 0
Cocklebur plant response rating (cocklebur; [2]): 0
Plant response rating, Cocklebur (cocklebur; [3]): 0
Cocklebur plant response rating (cocklebur; [4]): 0
Cocklebur plant response rating (cocklebur; [5]): 0
Cocklebur plant response rating (0 to 10 scale) (cocklebur; Preemergence, Rate 250 g/ha): 0
Plant response rating, Cocklebur (cocklebur; [6]): 0
Plant response rating, Cocklebur (cocklebur; [7]): 0
Ducksalad plant response rating (duck salad; [8]): 0
Ducksalad plant response rating (0 to 10 scale, 0 is no effect, 10 is complete control) (duck salad; [9]): 0
Ducksalad plant response rating (duck salad; [10]): 0
Ducksalad plant response rating (duck salad; [11]): 0
Plant response rating, Velvetleaf (velvetleaf; [1]): 0
Velvetleaf plant response rating (velvetleaf; [2]): 0
Plant response rating, Velvetleaf (velvetleaf; [3]): 0
Velvetleaf plant response rating (velvetleaf; [4]): 0
Velvetleaf plant response rating (velvetleaf; [5]): 0
Plant response rating, Velvetleaf (velvetleaf; [6]): 0
Plant response rating, Velvetleaf (velvetleaf; [7]): 0
Plant response rating, Giant foxtail (giant foxtail; [1]): 0
Giant foxtail plant response rating (giant foxtail; [2]): 0
Plant response rating, Giant foxtail (giant foxtail; [3]): 3
Giant foxtail plant response rating (giant foxtail; [4]): 3
Giant foxtail plant response rating (giant foxtail; [5]): 0
Plant response rating, Giant foxtail (giant foxtail; [6]): 0
Plant response rating, Giant foxtail (giant foxtail; [7]): 0
Plant response rating, Soybean (soybean; [1]): 2
Soybean plant response rating (soybean; [2]): 3
Plant response rating, Soybean (soybean; [3]): 4
Soybean plant response rating (soybean; [4]): 4
Soybean plant response rating (soybean; [5]): 0
Plant response rating, Soybean (soybean; [6]): 0
Plant response rating, Soybean (soybean; [7]): 3
